Assay results as given in ChEMBL document CHEMBL1759842, “Discovery of non-glucoside SGLT2 inhibitors” (Bioorg Med Chem Lett, 2011).

Key:
[1] = target: T1, Sodium/glucose cotransporter 2 (Mus musculus, UniProt Q923I7); assay: Inhibition of mouse SGLT2 expressed in CHO cells assessed as inhibition of [14C]-alpha-methyl-D-glucopyranoside transport after 60 mins by scintillation counting; type: cell-based
T1 sequence (Q923I7 whole entry): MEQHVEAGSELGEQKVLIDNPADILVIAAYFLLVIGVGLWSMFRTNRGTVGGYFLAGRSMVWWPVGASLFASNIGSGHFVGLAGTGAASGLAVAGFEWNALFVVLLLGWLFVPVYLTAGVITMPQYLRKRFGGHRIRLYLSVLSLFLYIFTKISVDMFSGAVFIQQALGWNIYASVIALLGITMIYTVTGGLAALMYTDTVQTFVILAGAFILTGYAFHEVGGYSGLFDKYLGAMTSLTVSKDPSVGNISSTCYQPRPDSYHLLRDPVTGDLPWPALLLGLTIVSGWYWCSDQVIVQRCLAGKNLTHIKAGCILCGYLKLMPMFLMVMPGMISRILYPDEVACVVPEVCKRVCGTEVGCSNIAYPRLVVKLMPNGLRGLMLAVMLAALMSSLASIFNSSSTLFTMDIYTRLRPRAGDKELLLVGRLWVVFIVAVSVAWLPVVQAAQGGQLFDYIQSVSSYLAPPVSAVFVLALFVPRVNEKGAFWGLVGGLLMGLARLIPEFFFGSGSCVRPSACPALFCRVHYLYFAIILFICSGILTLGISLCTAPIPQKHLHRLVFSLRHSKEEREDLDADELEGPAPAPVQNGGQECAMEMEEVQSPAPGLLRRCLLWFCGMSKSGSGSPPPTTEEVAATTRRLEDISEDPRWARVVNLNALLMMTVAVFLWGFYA

SGLT1 protein = target: T2, SGLT1 protein (Mus musculus, UniProt Q9QXI6); assay: Inhibition of mouse SGLT1 expressed in CHO cells assessed as inhibition of [14C]-alpha-methyl-D-glucopyranoside transport after 60 mins by scintillation counting; type: cell-based
T2 sequence (Q9QXI6 whole entry): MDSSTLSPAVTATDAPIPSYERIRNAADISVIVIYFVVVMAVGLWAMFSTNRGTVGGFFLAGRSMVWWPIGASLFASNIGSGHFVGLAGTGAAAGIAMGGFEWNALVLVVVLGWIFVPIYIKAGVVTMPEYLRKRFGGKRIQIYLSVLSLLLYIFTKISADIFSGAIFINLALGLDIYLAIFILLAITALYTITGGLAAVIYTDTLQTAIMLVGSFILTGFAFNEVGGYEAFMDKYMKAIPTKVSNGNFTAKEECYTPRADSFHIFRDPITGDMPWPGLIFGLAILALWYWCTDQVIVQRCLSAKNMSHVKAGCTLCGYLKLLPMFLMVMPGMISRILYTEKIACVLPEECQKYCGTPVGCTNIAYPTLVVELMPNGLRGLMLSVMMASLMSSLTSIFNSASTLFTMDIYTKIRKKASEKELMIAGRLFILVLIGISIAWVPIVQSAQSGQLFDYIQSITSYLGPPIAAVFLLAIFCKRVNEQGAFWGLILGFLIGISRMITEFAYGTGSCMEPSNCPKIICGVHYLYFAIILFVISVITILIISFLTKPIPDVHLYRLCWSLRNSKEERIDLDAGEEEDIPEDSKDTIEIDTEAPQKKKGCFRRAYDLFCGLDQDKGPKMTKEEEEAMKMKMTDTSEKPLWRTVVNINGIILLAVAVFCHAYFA

IC50 [1]: 1200 nM | IC50 (SGLT1 protein): 3000 nM
Compound: Cn1c(CN2C(=O)CSc3ccc(C(F)(F)F)cc32)nnc1SCc1ccc(Cl)cc1
